Data from patent publication US20110269699A1, “CANCER THERAPY” (priority 2008, published 2011).

Experiments:
[1] = test system: acetylated histones H3 and H4; assay: Western blot analysis of histone acetylation status; format: cell-based, mouse; details: for histone acetylation: 3.0 nmol/L, 2, 8, 24 h
Description: Eμ-myc lymphoma cells were lysed in lysis buffer [0.15 mol/L NaCl, 10 mmol/L Tris-HCl (pH 7.4), 5 μmol/L EDTA, 1% Triton X-100] supplemented with protease inhibitors (leupeptin, pepstatin, and phenylmethylsulfonyl fluoride; Sigma-Aldrich) as described previously (Lindemann et al., Proc. Nat. Acad. Sci. USA 104:8071-8078, 2007). Proteins (30-50 μg) were separated on 10% or 15% SDS polyacrylamide gels electroblotted onto Immobilon-P […] membranes (Millipore). Membranes were incubated with the following antibodies: anti-mouse Bcl-2 (BD PharMingen), anti-mouse Bcl-XL (BD PharMingen), anti-mouse Bcl-w (Chemicon Australia), anti-mouse Mcl-1 (Rockland), anti-mouse A1 (Sapphire Biosciences), anti-Flag tag (Sigma-Aldrich), anti-acetylated histone H3 and antiacetylated histone H4 (Upstate Biosystems), anti-β actin (Sigma-Aldrich), and anti-tubulin (Sigma-Aldrich) overnight at 4° C. followed by subsequent incubation with horseradish peroxidase-conjugated secondary antibodies (DAKO) Immunoreactive bands were visualized by enhanced chemiluminescence (Amersham).

4242Eμ-myc lymphomas = assay: In vitro cell death analysis (parental control of the Bcl-XL experiment); format: cell-based, mouse
Description: To determine if increased expression of Bcl-XL could confer resistance to romidepsin, 4242Eμ-myc/Bcl-XL lymphomas were produced and tested for sensitivity to HDACi.
Eμ-myc lymphoma cells (5×10^5/mL) were incubated in the presence of the indicated compounds for 20 h in 1 mL cell culture medium in 24-well plates (Greiner Bio-One). Viability of cells as measured by trypan blue exclusion assay, propidium iodide uptake, Annexin V staining, cell cycle analysis, or tetramethylrhodamine ethyl ester staining were done as described (Lindemann et al., Proc. Nat. Acad. Sci. USA 104:8071-8078, 2007).

[2] = test system: 226Eμ-myc/Bcl-2 lymphomas; assay: Cell cycle analysis of Eμ-myc/Bcl-2 cells treated with HDACi; format: cell-based, mouse; details: 226/Bcl-2
Description: (§1) Next, the cell cycle profiles of Eμ-myc/Bcl-2 lymphomas treated with oxamflatin and romidepsin over 3 days were assessed.
(§2) […] Viability of cells as measured by trypan blue exclusion assay, propidium iodide uptake, Annexin V staining, cell cycle analysis, or tetramethylrhodamine ethyl ester staining were done as described (Lindemann et al., Proc. Nat. Acad. Sci. USA 104:8071-8078, 2007).

[3] = test system: 4242Eμ-myc/Bcl-2 lymphomas; assay: as above; format: cell-based, mouse; details: 4242/Bcl-2
Description: as §1, §2

Eμ-myc lymphomas = assay: In vivo apoptosis assay; set-up: species or system C57BL/6 mice; details: all four Eμ-myc lymphomas in lymph nodes; 5.6 mg/kg i.v.; 24-h time course
Description: (§3) For in vivo apoptosis assays, C57BL/6 mice were injected with Eμ-myc lymphomas (5×10^5 cells per animal) and after 10 to 15 days on which lymph nodes became well-palpable romidepsin (5.6 mg/kg) was administered i.v. After the indicated time points, mice were sacrificed and cells were harvested from brachial lymph nodes for fluorescence-activated cell sorting-based assays to measure apoptotic signaling (Lindemann et al., Proc. Nat. Acad. Sci. USA 104:8071-8078, 2007). To assess therapeutic efficacy of romidepsin, C57BL/6 mice were injected with Eμ-myc lymphomas of the indicated genotypes i.v. (5×10^5 cells per animal). Peripheral WBC counts were then monitored until they exceeded 13×10^3/μL (Sysmex Hematology Analyzer K-1000) and romidepsin was administered at 5.6 mg/kg i.v. once every 4 days for a total of four injections. […] Mice in the control cohort received the corresponding amount of vehicle. Cohorts consisted of 8 to 11 mice each, 2 to 3 independently derived lymphomas per genotype. Peripheral WBC counts and body weights were recorded weekly. On signs of major distress or when lymphomas were relapsing as indicated by enlarged brachioaxial lymph nodes, mice were euthanized and a necropsy was done. For analysis of therapeutic efficacy, tumor-induced mortality “events” were recorded. Kaplan-Meier analysis was done and comparisons made using the log-rank (Mantel-Cox) test (MedCalc software version 8.0.2.0).

[4] = test system: 229Eμ-myc/Bcl-2 lymphomas; assay: In vivo apoptosis assay; set-up: species or system C57BL/6 mice; details: 5.6 mg/kg i.v.; later time points (>24 h)
Description: as §3

[5] = test system: 102Eμ-myc/Bcl-2 lymphomas; assay: In vivo apoptosis assay; set-up: species or system C57BL/6 mice; details: 5.6 mg/kg i.v.; even at 48 h
Description: as §3

[6] = test system: 226Eμ-myc/Bcl-2 lymphomas; assay: In vivo apoptosis assay; set-up: species or system C57BL/6 mice; details: 5.6 mg/kg i.v.; even at 36 h
Description: as §3

Eμ-myc/Bcl-2 lymphomas = assay: In vivo apoptosis assay; set-up: species or system C57BL/6 mice; details: all four Eμ-myc/Bcl-2 lymphomas; 5.6 mg/kg i.v.; 24 h after exposure
Description: as §3

[7] = test system: 4242Eμ-myc/Bcl-2 lymphomas; assay: In vivo apoptosis assay; set-up: species or system C57BL/6 mice; details: 5.6 mg/kg i.v.; later time points (>24 h)
Description: as §3

[8] = test system: 4242Eμ-myc/Bcl-2 lymphomas; assay: In vitro cell death analysis, time course; format: cell-based, mouse; details: 3.0 nmol/L; up to 72 h
Excerpt: The primary function of prosurvival Bcl-2 proteins is to inhibit the activity of Bak and Bax proteins and thereby protect the mitochondrial membrane from damage (Cory et al., Nat. Rev. Cancer 2:647-656, 2002). To determine if the induction of apoptosis mediated by romidepsin in 4242Eμ-myc/Bcl-2 and 229Eμ-myc/Bcl-2 lymphomas was via perturbation of the mitochondrial membrane or through some other mechanism, HDACi-induced mitochondrial outer membrane permeabilization (MOMP) was quantitated by staining with tetramethylrhodamine ethyl ester (Molecular Probes).
as §2

Question: What does the source list for “(1S,4S,10S,16E,21R)-7-[(2Z)-ethylidene]-4,21-diisopropyl-2-oxa-12,13-dithia-5,8,20,23-tetraazabicyclo[8.7.6]tricos-16-ene-3,6,9,19,22-pentanone [Romidepsin]”?
Answer: histone acetylation ([1]; 226Eμ-myc/Bcl-2 lymphomas): equivalent increase in histone acetylation; acetylation of histones H3 and H4 ([1]; 4242Eμ-myc lymphomas, 3.0 nmol/L romidepsin, 0.1 mmol/L oxamflatin, 24-h time course): induced equivalent acetylation of histones H3 and H4; histone acetylation ([1]; 4242Eμ-myc/Bcl-2 lymphomas): equivalent increase in histone acetylation; plasma membrane integrity and mitochondrial function (4242Eμ-myc lymphomas; increasing concentrations over 24 h): dose-dependent loss of plasma membrane integrity and mitochondrial function; cell cycle analysis: DNA fragmentation (4242Eμ-myc lymphomas; increasing doses): DNA fragmentation occurred; cell killing in time course (4242Eμ-myc lymphomas; parental Eμ-myc lymphomas, within the first 24 h, 3 nmol/L romidepsin or 0.1 μmol/L oxamflatin): effectively killed; % G1 ([2]; 24 hr): 48.6%; % G2/M ([2]; 24 hr): 26.6%; % S phase ([2]; 24 hr): 16.4%; % subG1 ([2]; 24 hr): 3.7%; % G1 ([2]; 48 hr): 52.3%; % G2/M ([2]; 48 hr): 27.1%; % S phase ([2]; 48 hr): 13.5%; % subG1 ([2]; 48 hr): 3.7%; % G1 ([2]; 72 hr): 78.3%; % G2/M ([2]; 72 hr): 8.7%; % S phase ([2]; 72 hr): 2.5%; % subG1 ([2]; 72 hr): 7.8%; % G1 ([3]; 24 hr): 66.3%; % G2/M ([3]; 24 hr): 11.4%; % S phase ([3]; 24 hr): 2.1%; % subG1 ([3]; 24 hr): 19.3%; % G1 ([3]; 48 hr): 53.2%; % G2/M ([3]; 48 hr): 8.5%; % S phase ([3]; 48 hr): 4.6%; % subG1 ([3]; 48 hr): 27.2%; % G1 ([3]; 72 hr): 34.8%; % G2/M ([3]; 72 hr): 7.1%; % S phase ([3]; 72 hr): 3.0%; % subG1 ([3]; 72 hr): 55.3%; apoptosis in vivo (outer cell membrane damage, DNA fragmentation) (Eμ-myc lymphomas): sensitive to romidepsin; apoptosis in vivo [4]: did undergo apoptosis at later time points; apoptosis in vivo [5]: remained insensitive; apoptosis in vivo [6]: remained insensitive; apoptosis in vivo (Eμ-myc/Bcl-2 lymphomas): resistant to romidepsin-induced apoptosis; apoptosis in vivo [7]: did undergo apoptosis at later time points; cell killing in time course [8]: could kill
